According to patent US8536227B2, “Modulators of protein kinase signaling” (Novotyr Therapeutics Ltd., priority 2008, dated 2013):

What was measured:
[1] = tested on: Human ovary cancer A2780 cells xenografts; assay: Inhibition of ovarian A2780 tumor growth in vivo (xenograft); parameters: species or system Nude:Hsd mice; conditions: A2780 xenograft in nude mice
Method: Groups were composed of 7-8 mice per group.
The procedure was followed for the A2780 ovary cancer cell in-vivo study with the following modifications:
The Veh group received PBS. The CDDP group received 8 mg/kg CDDP (Cisplatin) twice a week.

[2] = tested on: IGF1R related cell signaling in human breast cancer MCF7 cells; conditions: FIG. 15; for IGF1-induced tyrosine phosphorylation of IRS1: 50 ng/ml IGF-1 stimulation
Method: (§2) Tyrosine autophosphorylation of the β-subunit of IGF1R as well as downstream signaling induced by IGF1R were assayed in human breast cancer MCF7 cells and in melanoma A375 cells. Cells were seeded in 6-well plates (250,000 cells/well) and 24 hours later medium was replaced by serum-free medium (RPMI supplemented with 100 units/ml penicillin and 100 μg/ml streptomycin). Following 20 hours of serum-starvation, medium was replaced with serum-free medium containing various concentrations of the inhibitors in 0.1% DMSO for an additional 4-5 hours. […] Equal amounts of protein per lane were separated by 8% SDS-PAGE and transferred to a nitrocellulose membrane (Sartorius AG). […] Detection was performed with horseradish peroxidase-conjugated secondary antibody using the ECL system. Blots were then stripped of antibodies, blocked with TBST with 5% low fat milk and re-probed with antibodies detecting both the phosphorylated and the non-phosphorylated corresponding proteins e.g. IGF1Rβ, IRS1, PKB, and ERK. Anti-actin antibodies served as control.
(§3) In addition, lysates were prepared from cells exposed to inhibitors at various concentrations for 24 hours in the presence or the absence of FCS without stimulation. Lysate preparation and western blot were performed as described above.

[3] = tested on: IGF1R related cell signaling in human melanoma A375 cells; conditions: FIGS. 14 and 16; for IGF1-induced tyrosine phosphorylation of IRS1: 50 ng/ml IGF-1 stimulation
Method: as §2, §3

U138MG cells = assay: cells; conditions: Homo sapiens, U138-MG, 168 h, read-out: CF (colony formation in soft agar) IC50
Method: (§1) Suspensions of separated A375 and U138MG cells were plated in 50 μl growth medium containing 0.3% agar on top of a 100 μl layer of growth medium containing 1% agar in 96-well plates. Growth medium (50 μl) supplemented with inhibitors at various concentrations was added on top. Six to seven days after plating, colonies were stained with 0.5% MTT for 4 hours, and dye was then extracted by the addition of 100 μl dissolving buffer, containing 5 gr sodium dodecyl sulfate, 8.75 ml DDW, 12.5 ml dimethyl formamide, 0.5 ml acetic acid and 0.07 ml HCl. Following incubation overnight at 37° C., optical density values were read at 570 nm in ELISA plate reader. The data was analyzed in Microsoft Excel, using the vehicle control as 100% proliferation. The assays were performed in triplicates. The values of IC50 were derived from the dose-dependent growth curves obtained.

A375 cells = assay: cells; conditions: Homo sapiens, A-375, 168 h, read-out: CF (colony formation in soft agar) IC50
Method: as §1

[4] = tested on: Human melanoma A375 cells xenografts; conditions: A375 xenograft in nude mice, IP 50 mg/kg daily or 100 mg/kg every other day
Method: Human melanoma A375 cells (ATCC, 2×10^6 cells per mouse) were injected subcutaneously into the flank of Nude:Hsd mice. Eight days later, when tumors were formed, mice were divided into 3 groups with similar average tumor size of 120 mm^3. […] The Veh group received daily 2% EtOH, 6% Tween-80 in DDW at volume of 10 ml/kg. Groups were composed of 7-8 mice per group. The length (l) and the width (w) of the tumors were measured twice a week, as well as the mouse body weight. The volumes of the tumors were calculated as follows: v=lw^2/2. Graphs present average volumes of the tumors versus days following treatment initiation.
The mice were treated with daily or alternate day IP injections, at the specified doses.

Row | Compound | inhibition of ovarian tumor growth ([1]; 8 mg/kg twice a week) [%] | IGF1-induced tyrosine phosphorylation of IRS1 [2] | serine phosphorylation of IRS1 (pS636/639-IRS1) and IRS1 level [2] | IGF1-induced tyrosine phosphorylation of IRS1 [3] | serine phosphorylation of IRS1 (pS636/639-IRS1) and IRS1 level [3] | IC50 (U138MG cells) [nM] | IC50 (A375 cells) [nM] | inhibition of melanoma tumor growth [4] [%] | inhibition of ovarian tumor growth ([1]; IP daily 25 mg/kg in PBS) [%]
1 | [NH2][Pt]([NH2])([Cl])[Cl] [CDDP, Cisplatin, reference compound] | 14 | – | – | – | – | – | – | – | –
2 | Oc1cc(/C=C/C(=S)NCc2cc(O)c(O)c(O)c2Br)cc(Br)c1O [Compound 4] | – | inhibited | induce serine phosphorylation of IRS1, followed by its degradation | – | – | – | – | – | –
3 | Oc1cc(CNC(=S)/C=C/c2ccc(O)c(O)c2Br)cc(O)c1O [Compound 5] | – | inhibited | induce serine phosphorylation of IRS1, followed by its degradation | inhibited | induce serine phosphorylation of IRS1, followed by its degradation | 2600 | 400 | 70 | 45
4 | Oc1cc(Br)c(/C=C/C(=S)NCc2cc(O)c(O)c(O)c2)cc1O [Compound 6] | – | – | – | inhibited | induce serine phosphorylation of IRS1, followed by its degradation | – | – | – | –
